Experimental data published in US8791303B2, “Herbicides” (Syngenta Limited, priority 2009, dated 2014).

How the values were obtained:
[1] = tested on: Echinochloa crus-galli (ECHCG); assay: Example A glasshouse herbicide test, pre-emergence, ECHCG; type: in vivo; details: Echinochloa crus-galli, pre-emergence, 312 h, Rate 250 g/ha, sprayed after cultivation for one day, evaluated after 13 days, read-out: Pre-Emergence Activity ECHCG (100=total damage to plant; 0=no damage to plant)
Experimental: (§1) Seeds of a variety of test species are sown in standard soil in pots. After cultivation for one day (pre-emergence) or after 8 days cultivation (post-emergence) under controlled conditions in a glasshouse (at 24/16° C., day/night; 14 hours light; 65% humidity), the plants are sprayed with an aqueous spray solution derived from the formulation of the technical active ingredient in acetone/water (50:50) solution containing 0.5% Tween 20 (polyoxyethelyene sorbitan monolaurate, CAS RN 9005-64-5).
(§2) The test plants are then grown in a glasshouse under controlled conditions in a glasshouse (at 24/16° C., day/night; 14 hours light; 65% humidity) and watered twice daily. After 13 days for pre and post-emergence, the test is evaluated (100=total damage to plant; 0=no damage to plant).
(§3) Lolium perenne (LOLPE), Alopecurus myosuroides (ALOMY), Echinochloa crus-galli (ECHCG), Avena fatua (AVEFA)

[2] = tested on: Echinochloa crus-galli (ECHCG); assay: Example A glasshouse herbicide test, post-emergence, ECHCG; type: in vivo; details: Echinochloa crus-galli, post-emergence, 312 h, Rate 250 g/ha, sprayed after 8 days cultivation, evaluated after 13 days, read-out: Post-Emergence Activity ECHCG (100=total damage to plant; 0=no damage to plant)
Experimental: as §1, §2, §3

[3] = tested on: Winter Wheat variety 'Hereward'; assay: Example B crop damage test, post-emergence, wheat seed treated with safener cloquintocet mexyl; type: in vivo; details: Rate 250 g/ha; post-emergence spray 8 days after sowing; seed treated with cloquintocet mexyl 0.5 g/kg dry seed; evaluated after 13 days
Experimental: Seeds of the Winter Wheat variety ‘Hereward’ were seed treated with a wettable powder formulation of the cereal herbicide safener, cloquintocet mexyl, at a rate of 0.5 grams per kilogram of dry seed prior to the initiation of glasshouse testing. One seed was sown per 1.5 inch plastic pot into a sandy loam soil at a depth of 1 cm, 8 days prior to application of the test compounds and was watered and grown under controlled conditions in a glasshouse (at 24/16° C., day/night; 14 hours light; 65% humidity). The plants were sprayed post-emergence with an aqueous spray solution derived from the formulation of the technical active ingredient in acetone/water (50:50) solution containing 0.5% Tween 20 (polyoxyethelyene sorbitan monolaurate, CAS RN 9005-64-5).
(§4) The test plants were then grown in a glasshouse under controlled conditions in a glasshouse (at 24/16° C., day/night; 14 hours light; 65% humidity) and watered twice daily. After 13 days for pre and post-emergence, the test was evaluated (100=total damage to plant; 0=no damage to plant).

Avena fatua (AVEFA) [4] = assay: Example A glasshouse herbicide test, post-emergence, AVEFA; type: in vivo; details: Avena fatua, post-emergence, 312 h, Rate 250 g/ha, sprayed after 8 days cultivation, evaluated after 13 days, read-out: Post-Emergence Activity AVEFA (100=total damage to plant; 0=no damage to plant)
Experimental: as §1, §2, §3

[5] = tested on: Alopecurus myosuroides (ALOMY); assay: Example A glasshouse herbicide test, pre-emergence, ALOMY; type: in vivo; details: Alopecurus myosuroides, pre-emergence, 312 h, Rate 250 g/ha, sprayed after cultivation for one day, evaluated after 13 days, read-out: Pre-Emergence Activity ALOMY (100=total damage to plant; 0=no damage to plant)
Experimental: as §1, §2, §3

Lolium perenne (LOLPE) [6] = assay: Example A glasshouse herbicide test, post-emergence, LOLPE; type: in vivo; details: Lolium perenne, post-emergence, 312 h, Rate 250 g/ha, sprayed after 8 days cultivation, evaluated after 13 days, read-out: Post-Emergence Activity LOLPE (100=total damage to plant; 0=no damage to plant)
Experimental: as §1, §2, §3

[7] = tested on: Winter Wheat variety 'Hereward'; assay: Example B crop damage test, post-emergence, unsafened wheat; type: in vivo; details: Rate 250 g/ha; post-emergence spray after 8 days cultivation; no safener; evaluated after 13 days
Experimental: Seeds of the Winter Wheat variety ‘Hereward’ were sown in standard soil in pots. After 8 days cultivation under controlled conditions in a glasshouse (at 24/16° C., day/night; 14 hours light; 65% humidity), the plants were sprayed post-emergence with an aqueous spray solution derived from the formulation of the technical active ingredient in acetone/water (50:50) solution containing 0.5% Tween 20 (polyoxyethelyene sorbitan monolaurate, CAS RN 9005-64-5).
as §4

Avena fatua (AVEFA) [8] = assay: Example A glasshouse herbicide test, pre-emergence, AVEFA; type: in vivo; details: Avena fatua, pre-emergence, 312 h, Rate 250 g/ha, sprayed after cultivation for one day, evaluated after 13 days, read-out: Pre-Emergence Activity AVEFA (100=total damage to plant; 0=no damage to plant)
Experimental: as §1, §2, §3

Lolium perenne (LOLPE) [9] = assay: Example A glasshouse herbicide test, pre-emergence, LOLPE; type: in vivo; details: Lolium perenne, pre-emergence, 312 h, Rate 250 g/ha, sprayed after cultivation for one day, evaluated after 13 days, read-out: Pre-Emergence Activity LOLPE (100=total damage to plant; 0=no damage to plant)
Experimental: as §1, §2, §3

[10] = tested on: Alopecurus myosuroides (ALOMY); assay: Example A glasshouse herbicide test, post-emergence, ALOMY; type: in vivo; details: Alopecurus myosuroides, post-emergence, 312 h, Rate 250 g/ha, sprayed after 8 days cultivation, evaluated after 13 days, read-out: Post-Emergence Activity ALOMY (100=total damage to plant; 0=no damage to plant)
Experimental: as §1, §2, §3

SMILES	melting point [°C]	pest or weed control at 250 g/ha [1] [%]	pest or weed control at 250 g/ha [2] [%]	Winter Wheat (Hereward) + cloquintocet mexyl damage (100=total damage to plant; 0=no damage to plant) [3]	pest or weed control at 250 g/ha (Avena fatua (AVEFA) [4]) [%]	pest or weed control at 250 g/ha [5] [%]	pest or weed control at 250 g/ha (Lolium perenne (LOLPE) [6]) [%]	Winter Wheat (Hereward) damage (100=total damage to plant; 0=no damage to plant) [7]	pest or weed control at 250 g/ha (Avena fatua (AVEFA) [8]) [%]	pest or weed control at 250 g/ha (Lolium perenne (LOLPE) [9]) [%]	pest or weed control at 250 g/ha [10] [%]
Cc1cc(C)c(C2C(=O)CC(Cc3ccc(F)cc3)C2=O)c(C)c1 (centres unmarked) [Compound A12]	183.1 to 183.2										
Cc1cc(C)c(C2C(=O)C/C(=C\C3CCCCC3C)C2=O)c(C)c1 (centres unmarked) [Compound A26]		100	70	20	50	90	90	40	90	100	60
Cc1cc(C)c(C2C(=O)C/C(=C\C3CCCCC3)C2=O)c(C)c1 (centres unmarked) [Compound A1]		100	90	50	80	70	80	60	50	100	80
Cc1cc(C)c(C2C(=O)CC(CC3CCCC4CCCCC43)C2=O)c(C)c1 (centres unmarked) [Compound A36]		70	70	0	90	70	70	20	50	10	40
Cc1cc(C)c(C2C(=O)C/C(=C\C3CCCC3)C2=O)c(C)c1 (centres unmarked) [Compound A4]		100	90	0	70	100	60	60	70	100	70
Cc1cc(C)c(C2=C(OC(=O)C(C)(C)C)CC(CC3CCCCC3)C2=O)c(C)c1 (centres unmarked) [Compound B2]		100	60	0	80	30	90	70	0	100	80
Cc1cccc(C)c1C1C(=O)CC(CC2CCCCC2)C1=O (centres unmarked) [Compound A10, 4-cyclohexylmethyl-2-(2,6-dimethyl-phenyl)-cyclopentane-1,3-dione]		20	70	0	20	0	40	10	0	80	20
Cc1cc(C)c(C2C(=O)CC(CC3CCC(C)CC3)C2=O)c(C)c1 (centres unmarked) [Compound A33]		100	60	0	70	30	100	40	50	0	30
Cc1cc(C)c(C2C(=O)CC(CC3CCCCCC3)C2=O)c(C)c1 (centres unmarked) [Compound A35]		100	80	0	20	50	80	20	50	30	50
Cc1cc(C)c(C2C(=O)CC(CC3CCCCC3)C2=O)c(C)c1 (centres unmarked) [Compound A2]		90	90	10	80	70	100	70	70	100	70
Cc1cc(C)c(C2C(=O)CC(CC3CCCC3)C2=O)c(C)c1 (centres unmarked) [Compound A3]		100	90	20	80	100	90	60	70	100	90
Cc1cc(Br)cc(C)c1C1C(=O)CC(CC2CCCCC2)C1=O (centres unmarked) [Compound A11]		0	20	0	0	0	50	0	0	20	10
Cc1cc(C)c(C2C(=O)CC(CC3CCC(=NO)CC3)C2=O)c(C)c1 (centres unmarked) [Compound A8]		90	50	10	90	60	100	30	40	90	70
Cc1cc(C)c(C2=C(OC(=O)C(C)(C)C)C(CC3CCC(=O)CC3)CC2=O)c(C)c1 (centres unmarked) [Compound B3]		50	90	30	90	70	90	40	50	90	70
